Data reported in patent US20260184675A1, “CHIRAL ISOMERIC SULFITE COMPOUND AND APPLICATION THEREOF” (Chengdu Hanova BioSciences Co., Ltd, priority 2024, published 2026).

What was measured:
Type in all cases: in vivo
eggs of Thrips = assay: Effect on hatching of eggs of Thrips, leaf disc method; settings: 100 ppm; for Hatching rate (%): 5 days after insecticide delivery
Experimental: (§1) • (1) Preparation of leaf discs containing eggs: 20 female adult mites of Tetranychus cinnabarinus were transferred onto leaf discs of Vicia faba with a diameter of 2.0 cm (with wetted filter paper at the bottom), then covered it with a lidded culture dish and cultivated under moisturizing conditions, the adult mites were removed within 36 hours and microscopic examination and counting were performed on leaf discs containing eggs. • (2) Investigation of egg population base: Before pesticide soaking, a microscopic examination was conducted on the egg basic number of each leaf disc, with 2 replicates set for each treatment. • (3) Pesticide soaking treatment: The leaf butterflies loaded with mite eggs were soaked in clear water and sulfite compounds for 10 seconds, respectively, then taken out and cultivated under moisturizing conditions. Each treatment should be repeated for no less than 3 times. • (4) Cultivation and observation: The […] were cultivated under normal conditions. Five days after insecticide delivery, the hatching status of mite eggs was investigated. • Note: The temperature and humidity conditions of the constant temperature and humidity incubator after the treatment should be controlled so as to avoid excessive temperature differences, which may cause generation and dripping of condensate water in the culture dish, resulting in abnormal death of eggs due to soaking in water; it is also necessary to ensure sufficient strong ambient light, without directing irradiating the leaves. • (5) Survey of Results: The experimental materials of each treatment group were regularly hydrated and moisturized, and the hatching of eggs was observed. On the 7th day after insecticide delivery, the number of hatched eggs for each treatment was recorded, and the survey of results was recorded in the original notebook. According to the experimental requirements and characteristics of agents, the survey time can be shortened or extended.
(§2) • 1) Surveying and recording the number of hatched eggs for each treatment. • 2) Photographing and recording whether there was any pesticide damage to the leaf discs of Vicia faba. • 3) Recording the developmental status of experimental mite eggs, behavior status of nymph mites, including abnormal phenomena such as delayed or stopped development of mite eggs, difficulty in breaking hull for nymph mites, or painful struggles after hatching, etc. • (6) Calculation method: Based on the survey data, the prevention and control effect of each treatment was calculated according to the following formula, and the calculation results were kept to two decimal places.
(§3) This test adopted the method in Test Example 1 of technical section, mainly used leaf disc method to explore the inhibitory effect on hatching of eggs of Thrips by 1-(S,S), 1-(S,R), 1-(R,R), 1-(R,S), 1′-(S,S), 1′-(S,R), 1′-(R,R), 1′-(R,S), compound 1, compound 1′, S-10, R-10, S-10′, R-10′, compound 10, compound 10′, compound 19-(S,S), 19-(S,R), 19-(R,R), 19-(R,S), 19′-(S,S), 19′-(S,R), 19′-(R,R), 19′-(R,S), compound 19, and compound 19′. The concentration of all compounds was 100 ppm.

[1] = tested on: eggs of Tetranychus urticae; assay: Effect on hatching of eggs of Tetranychus urticae, leaf disc method; settings: 5 ppm; for Hatching rate (%): 5 days after insecticide delivery
Experimental: as §1, §2
as §3, with “Tetranychus urticae” for “Thrips”, “by compounds” for “by”, “5” for “100”

eggs of Aleyrodidae = assay: Effect on hatching of eggs of Aleyrodidae, leaf disc method; settings: 10 ppm; for Hatching rate (%), Replicate 1 / Hatching rate (%), Replicate 2 / Hatching rate (%), Replicate 3 / Number of hatched larvae 5 days after insecticide delivery, Replicate 1 / Number of hatched larvae 5 days after insecticide delivery, Replicate 2 / Number of hatched larvae 5 days after insecticide delivery, Replicate 3: Aleyrodidae eggs; for Hatching rate (%), Replicate 1 / Hatching rate (%), Replicate 2 / Hatching rate (%), Replicate 3: 5 days after delivery; for Number of hatched larvae 5 days after insecticide delivery, Replicate 1 / Number of hatched larvae 5 days after insecticide delivery, Replicate 2 / Number of hatched larvae 5 days after insecticide delivery, Replicate 3: leaf disc
Experimental: as §1, §2
as §3, with “Aleyrodidae” for “Thrips”, “by compounds” for “by”, “10” for “100”

[2] = tested on: eggs of Harmonia axyridis; assay: Effect on hatching of eggs of Harmonia axyridis, egg card immersion; settings: 100 ppm; for Number of hatched larvae 4 days after insecticide delivery, Replicate 1 / Number of hatched larvae 4 days after insecticide delivery, Replicate 2 / Number of hatched larvae 4 days after insecticide delivery, Replicate 3: Harmonia axyridis egg cards, immersed 30 seconds; for Hatching rate (%), Replicate 1 / Hatching rate (%), Replicate 2 / Hatching rate (%), Replicate 3: Harmonia axyridis eggs, 4 days after delivery
From the text: The eggs of Harmonia axyridis cards (with approximately 20 eggs per card) were purchased from Henan Jiyuan Baiyun Industry Co., Ltd. in Henan Province. The number of eggs on the egg cards was counted as the basic number before insecticide delivery, and 5 cards were used as one treatment, with 3 replicates per treatment. After immersing the egg cards in a 100 ppm insecticide solution for 30 seconds, they were taken out and air dried, then cultivated under moisturizing conditions, and the […] were cultivated at 27° C. 4 days after insecticide delivery, the hatching status of eggs of Harmonia axyridis was investigated, and the prevention and control effect was calculated according to the following formula. [formula] [formula]

[3] = Replicate 1, listed as 1-(R, R)
[4] = Replicate 2, listed as 1-(R, R)
[5] = Replicate 3, listed as 1-(R, R)
[6] = Replicate 1, listed as 1-(R, S)
[7] = Replicate 2, listed as 1-(R, S)
[8] = Replicate 3, listed as 1-(R, S)
[9] = Replicate 1, listed as 1-(S, R)
[10] = Replicate 2, listed as 1-(S, R)
[11] = Replicate 3, listed as 1-(S, R)

## C[C@H](COS(=O)OCCF)Oc1ccc(Cl)cc1Cl (stereo partly drawn) [1-(R,R)]
Eggs of Thrips
  inhibitory activity on the hatching of eggs of Thrips (in words): strong inhibitory activities
Eggs of Thrips; [3]
  Hatching rate (%): 0.00%
  Number of hatched larvae 5 days after insecticide delivery: 0
Eggs of Thrips; [4]
  Hatching rate (%): 0.00%
  Number of hatched larvae 5 days after insecticide delivery: 0
Eggs of Thrips; [5]
  Hatching rate (%): 0.00%
  Number of hatched larvae 5 days after insecticide delivery: 0
[1]
  inhibitory activity on the hatching of eggs of Tetranychus urticae (in words): strong inhibitory activities
[1]; [3]
  Hatching rate (%): 0.00%
  Number of hatched larvae 5 days after insecticide delivery: 0
[1]; [4]
  Hatching rate (%): 0.00%
  Number of hatched larvae 5 days after insecticide delivery: 0
Eggs of Aleyrodidae
  inhibitory activity on the hatching of eggs of Aleyrodidae (in words): strong inhibitory activities
Eggs of Aleyrodidae; listed as 1-(R, R)
  Hatching rate (%), Replicate 1: 0.00%
  Hatching rate (%), Replicate 2: 0.00%
  Hatching rate (%), Replicate 3: 0.00%
  Number of hatched larvae 5 days after insecticide delivery, Replicate 1: 0
  Number of hatched larvae 5 days after insecticide delivery, Replicate 2: 0
  Number of hatched larvae 5 days after insecticide delivery, Replicate 3: 0
[2]
  inhibitory activity on the hatching of eggs of Harmonia axyridis (in words): strong inhibitory activities
[2]; listed as 1-(R, R)
  Number of hatched larvae 4 days after insecticide delivery, Replicate 1: 0
  Number of hatched larvae 4 days after insecticide delivery, Replicate 2: 0
  Number of hatched larvae 4 days after insecticide delivery, Replicate 3: 0
  Hatching rate (%), Replicate 1: 0.00%
  Hatching rate (%), Replicate 2: 0.00%
  Hatching rate (%), Replicate 3: 0.00%

## C[C@H](COS(=O)OCCF)Oc1ccc(Cl)cc1Cl (stereo partly drawn) [1-(R,S)]
Eggs of Thrips; [6]
  Hatching rate (%): 9.57%
  Number of hatched larvae 5 days after insecticide delivery: 9
Eggs of Thrips; [7]
  Hatching rate (%): 9.02%
  Number of hatched larvae 5 days after insecticide delivery: 12
Eggs of Thrips; [8]
  Hatching rate (%): 7.95%
  Number of hatched larvae 5 days after insecticide delivery: 7
[1]; [6]
  Hatching rate (%): 14.10%
  Number of hatched larvae 5 days after insecticide delivery: 11
[1]; [7]
  Hatching rate (%): 12.70%
  Number of hatched larvae 5 days after insecticide delivery: 88
Eggs of Aleyrodidae; listed as 1-(R, S)
  Hatching rate (%), Replicate 1: 7.95%
  Hatching rate (%), Replicate 2: 7.41%
  Hatching rate (%), Replicate 3: 7.44%
  Number of hatched larvae 5 days after insecticide delivery, Replicate 1: 7
  Number of hatched larvae 5 days after insecticide delivery, Replicate 2: 10
  Number of hatched larvae 5 days after insecticide delivery, Replicate 3: 9
[2]; listed as 1-(R, S)
  Number of hatched larvae 4 days after insecticide delivery, Replicate 1: 11
  Number of hatched larvae 4 days after insecticide delivery, Replicate 2: 9
  Number of hatched larvae 4 days after insecticide delivery, Replicate 3: 10
  Hatching rate (%), Replicate 1: 9.91%
  Hatching rate (%), Replicate 2: 10.23%
  Hatching rate (%), Replicate 3: 10.53%

## C[C@@H](COS(=O)OCCF)Oc1ccc(Cl)cc1Cl (stereo partly drawn) [1-(S,R)]
Eggs of Thrips; [9]
  Hatching rate (%): 12.06%
  Number of hatched larvae 5 days after insecticide delivery: 17
Eggs of Thrips; [10]
  Hatching rate (%): 8.33%
  Number of hatched larvae 5 days after insecticide delivery: 8
Eggs of Thrips; [11]
  Hatching rate (%): 10.28%
  Number of hatched larvae 5 days after insecticide delivery: 11
[1]; [9]
  Hatching rate (%): 10.87%
  Number of hatched larvae 5 days after insecticide delivery: 10
[1]; [10]
  Hatching rate (%): 12.16%
  Number of hatched larvae 5 days after insecticide delivery: 9
Eggs of Aleyrodidae; listed as 1-(S, R)
  Hatching rate (%), Replicate 1: 9.65%
  Hatching rate (%), Replicate 2: 9.38%
  Hatching rate (%), Replicate 3: 10.48%
  Number of hatched larvae 5 days after insecticide delivery, Replicate 1: 11
  Number of hatched larvae 5 days after insecticide delivery, Replicate 2: 12
  Number of hatched larvae 5 days after insecticide delivery, Replicate 3: 11
[2]; listed as 1-(S, R)
  Number of hatched larvae 4 days after insecticide delivery, Replicate 1: 13
  Number of hatched larvae 4 days after insecticide delivery, Replicate 2: 14
  Number of hatched larvae 4 days after insecticide delivery, Replicate 3: 14
  Hatching rate (%), Replicate 1: 12.04%
  Hatching rate (%), Replicate 2: 14.14%
  Hatching rate (%), Replicate 3: 13.73%
